From patent publication US12343326B2, “Psychoactive medicines and their use for treating psychiatric and neurological conditions and disorders” (Transcend Therapeutics, Inc., priority 2021, dated 2025)

Legend:
Assay in all cases: β-arrestin based GPCR screen (PathHunter / GPCRmax), agonist mode
Assay type in all cases: cell-based
Parameters in all cases: host or cells: PathHunter cell lines
[1] = target: 168 GPCRs (Homo sapiens, UniProt O43193); conditions: MLNR
Method: (§1) For agonist determination, cells were incubated with sample to induce response. […] Vehicle concentration was 1%.

[2] = target: 168 GPCRs (Homo sapiens, UniProt Q8TCW9)
Method: as §1

[3] = target: 168 GPCRs (Homo sapiens, UniProt P37288); conditions: AVPR1A, Agonist
Method: as §1

[4] = target: 168 GPCRs (Homo sapiens, UniProt P47211)
Method: as §1

[5] = target: 168 GPCRs (Homo sapiens, UniProt P25101); conditions: EDNRA
Method: as §1

[6] = target: 168 GPCRs (Homo sapiens, UniProt Q9Y5N1)
Method: as §1

[7] = target: 168 GPCRs (Homo sapiens, UniProt P21462)
Method: as §1

[8] = target: 168 GPCRs (Homo sapiens, UniProt P21731); conditions: TBXA2R
Method: as §1

[9] = target: 168 GPCRs (Homo sapiens, UniProt Q9UKP6)
Method: as §1

[10] = target: 168 GPCRs (Homo sapiens, UniProt Q99705)
Method: as §1

[11] = target: T1, 168 GPCRs (Homo sapiens, UniProt P0DMS8); conditions: ADORA3, Agonist
T1 sequence (P0DMS8 1-318): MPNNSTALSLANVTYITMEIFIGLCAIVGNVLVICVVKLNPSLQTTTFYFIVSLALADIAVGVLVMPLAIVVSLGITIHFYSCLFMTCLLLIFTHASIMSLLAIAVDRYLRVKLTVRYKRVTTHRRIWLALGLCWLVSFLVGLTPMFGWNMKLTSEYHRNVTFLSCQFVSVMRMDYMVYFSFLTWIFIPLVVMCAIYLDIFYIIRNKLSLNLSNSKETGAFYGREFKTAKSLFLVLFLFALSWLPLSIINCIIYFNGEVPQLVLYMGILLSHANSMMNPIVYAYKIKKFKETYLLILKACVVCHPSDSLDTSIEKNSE
Method: as §1

[12] = target: 168 GPCRs (Homo sapiens, UniProt P21918)
Method: as §1

[13] = target: 168 GPCRs (Homo sapiens, UniProt Q969F8); conditions: KISS1R
Method: as §1

[14] = target: 168 GPCRs (Homo sapiens, UniProt P46091)
Method: as §1

[15] = target: 168 GPCRs (Homo sapiens, UniProt P25103)
Method: as §1

[16] = target: 168 GPCRs (Homo sapiens, UniProt P22888); conditions: LHCGR
Method: as §1

[17] = target: 168 GPCRs (Homo sapiens, UniProt P33032); conditions: MC5R
Method: as §1

[18] = target: 168 GPCRs (Homo sapiens, UniProt P32302)
Method: as §1

[19] = target: 168 GPCRs (Homo sapiens, UniProt Q01726); conditions: MC1R
Method: as §1

[20] = target: 168 GPCRs (Homo sapiens, UniProt P34998)
Method: as §1

[21] = target: 168 GPCRs (Homo sapiens, UniProt Q9H3N8)
Method: as §1

168 GPCRs (Homo sapiens, UniProt P33032), sequence (P33032 whole entry): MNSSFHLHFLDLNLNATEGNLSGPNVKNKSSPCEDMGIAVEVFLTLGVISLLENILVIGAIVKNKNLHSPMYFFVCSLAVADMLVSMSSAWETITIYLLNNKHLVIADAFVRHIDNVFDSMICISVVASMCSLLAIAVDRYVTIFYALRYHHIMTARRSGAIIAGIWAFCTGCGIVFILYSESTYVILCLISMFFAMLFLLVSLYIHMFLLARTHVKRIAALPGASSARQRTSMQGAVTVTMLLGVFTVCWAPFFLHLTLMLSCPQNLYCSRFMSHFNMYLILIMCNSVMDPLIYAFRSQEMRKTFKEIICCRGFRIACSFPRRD
168 GPCRs (Homo sapiens, UniProt Q9UKP6), sequence (Q9UKP6 whole entry): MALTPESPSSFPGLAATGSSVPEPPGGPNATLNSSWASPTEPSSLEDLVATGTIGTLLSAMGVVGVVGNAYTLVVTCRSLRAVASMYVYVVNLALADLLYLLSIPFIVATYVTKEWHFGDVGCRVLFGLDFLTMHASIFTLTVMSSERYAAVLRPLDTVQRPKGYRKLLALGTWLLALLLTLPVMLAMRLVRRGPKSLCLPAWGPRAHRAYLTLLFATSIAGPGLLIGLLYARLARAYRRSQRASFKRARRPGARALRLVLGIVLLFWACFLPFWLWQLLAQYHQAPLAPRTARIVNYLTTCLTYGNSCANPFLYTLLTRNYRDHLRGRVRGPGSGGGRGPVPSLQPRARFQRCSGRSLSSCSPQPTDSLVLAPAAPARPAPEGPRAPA
168 GPCRs (Homo sapiens, UniProt P25103), sequence (P25103 whole entry): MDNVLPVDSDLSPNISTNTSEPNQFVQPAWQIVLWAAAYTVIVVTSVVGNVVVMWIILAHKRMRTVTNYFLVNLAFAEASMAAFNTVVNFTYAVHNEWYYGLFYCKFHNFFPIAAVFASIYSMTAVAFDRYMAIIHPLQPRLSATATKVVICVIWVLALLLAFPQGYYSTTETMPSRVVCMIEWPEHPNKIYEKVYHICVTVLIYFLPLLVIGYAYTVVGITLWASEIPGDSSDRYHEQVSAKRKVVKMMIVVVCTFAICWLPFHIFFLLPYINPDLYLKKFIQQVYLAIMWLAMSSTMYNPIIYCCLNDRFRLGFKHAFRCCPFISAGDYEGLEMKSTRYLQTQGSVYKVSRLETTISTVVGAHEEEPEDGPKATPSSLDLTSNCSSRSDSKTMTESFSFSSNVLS
168 GPCRs (Homo sapiens, UniProt P46091), sequence (P46091 whole entry): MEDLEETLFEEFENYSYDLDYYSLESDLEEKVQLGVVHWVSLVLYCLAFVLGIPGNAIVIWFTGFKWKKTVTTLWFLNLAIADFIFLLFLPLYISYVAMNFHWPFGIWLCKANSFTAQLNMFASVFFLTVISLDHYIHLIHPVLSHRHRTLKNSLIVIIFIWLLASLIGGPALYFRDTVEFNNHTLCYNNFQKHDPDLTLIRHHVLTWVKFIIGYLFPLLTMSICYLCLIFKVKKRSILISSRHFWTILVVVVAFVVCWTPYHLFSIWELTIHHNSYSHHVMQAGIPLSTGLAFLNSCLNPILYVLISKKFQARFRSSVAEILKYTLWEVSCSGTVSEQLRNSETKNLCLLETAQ
168 GPCRs (Homo sapiens, UniProt P25101), sequence (P25101 21-427): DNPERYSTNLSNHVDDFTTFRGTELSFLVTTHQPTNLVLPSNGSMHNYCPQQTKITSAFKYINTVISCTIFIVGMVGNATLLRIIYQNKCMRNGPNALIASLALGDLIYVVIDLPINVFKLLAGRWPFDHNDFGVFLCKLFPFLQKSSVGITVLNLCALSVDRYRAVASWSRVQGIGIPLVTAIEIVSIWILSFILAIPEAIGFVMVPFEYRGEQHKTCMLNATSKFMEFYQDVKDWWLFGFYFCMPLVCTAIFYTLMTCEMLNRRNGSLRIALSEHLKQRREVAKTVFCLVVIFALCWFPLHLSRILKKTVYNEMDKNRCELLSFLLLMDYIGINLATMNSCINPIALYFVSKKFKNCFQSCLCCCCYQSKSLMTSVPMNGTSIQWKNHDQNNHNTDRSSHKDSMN
168 GPCRs (Homo sapiens, UniProt Q99705), sequence (Q99705 whole entry): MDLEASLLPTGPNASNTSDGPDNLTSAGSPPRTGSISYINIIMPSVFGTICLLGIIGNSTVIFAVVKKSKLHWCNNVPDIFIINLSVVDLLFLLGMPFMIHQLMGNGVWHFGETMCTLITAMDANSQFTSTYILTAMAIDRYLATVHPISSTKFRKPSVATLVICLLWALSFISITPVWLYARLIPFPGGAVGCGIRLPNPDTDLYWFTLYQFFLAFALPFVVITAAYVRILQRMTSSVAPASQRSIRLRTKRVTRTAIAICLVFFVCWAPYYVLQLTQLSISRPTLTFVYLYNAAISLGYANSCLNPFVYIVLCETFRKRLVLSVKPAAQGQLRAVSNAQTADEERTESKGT
168 GPCRs (Homo sapiens, UniProt P34998), sequence (P34998 24-415): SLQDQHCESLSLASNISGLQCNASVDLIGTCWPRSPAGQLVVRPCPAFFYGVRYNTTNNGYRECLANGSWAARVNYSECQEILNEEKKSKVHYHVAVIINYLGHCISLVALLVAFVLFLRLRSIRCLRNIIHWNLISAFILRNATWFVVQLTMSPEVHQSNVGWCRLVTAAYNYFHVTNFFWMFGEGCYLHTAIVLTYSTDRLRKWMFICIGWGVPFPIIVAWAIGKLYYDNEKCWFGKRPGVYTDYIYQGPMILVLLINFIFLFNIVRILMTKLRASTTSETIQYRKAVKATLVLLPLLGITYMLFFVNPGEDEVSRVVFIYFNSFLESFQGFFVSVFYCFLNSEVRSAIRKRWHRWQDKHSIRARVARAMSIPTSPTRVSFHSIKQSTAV
168 GPCRs (Homo sapiens, UniProt P47211), sequence (P47211 whole entry): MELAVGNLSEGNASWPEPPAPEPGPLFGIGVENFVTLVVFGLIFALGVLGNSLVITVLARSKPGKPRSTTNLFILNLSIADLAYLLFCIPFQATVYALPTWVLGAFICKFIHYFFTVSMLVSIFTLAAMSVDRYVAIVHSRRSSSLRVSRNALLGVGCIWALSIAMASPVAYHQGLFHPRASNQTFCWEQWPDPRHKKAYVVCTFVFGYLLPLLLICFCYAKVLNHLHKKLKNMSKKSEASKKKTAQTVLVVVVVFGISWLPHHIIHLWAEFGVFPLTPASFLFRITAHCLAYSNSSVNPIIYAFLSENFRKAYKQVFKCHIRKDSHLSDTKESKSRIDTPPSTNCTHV
168 GPCRs (Homo sapiens, UniProt Q01726), sequence (Q01726 whole entry): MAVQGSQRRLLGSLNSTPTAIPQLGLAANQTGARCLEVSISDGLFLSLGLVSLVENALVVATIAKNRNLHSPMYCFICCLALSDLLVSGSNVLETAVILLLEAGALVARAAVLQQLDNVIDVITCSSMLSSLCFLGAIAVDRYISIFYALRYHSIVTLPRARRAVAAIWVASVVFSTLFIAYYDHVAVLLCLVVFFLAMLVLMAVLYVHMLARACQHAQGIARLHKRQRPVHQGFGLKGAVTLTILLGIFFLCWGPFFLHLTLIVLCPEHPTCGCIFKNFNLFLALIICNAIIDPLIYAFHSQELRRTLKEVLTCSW
168 GPCRs (Homo sapiens, UniProt P21462), sequence (P21462 whole entry): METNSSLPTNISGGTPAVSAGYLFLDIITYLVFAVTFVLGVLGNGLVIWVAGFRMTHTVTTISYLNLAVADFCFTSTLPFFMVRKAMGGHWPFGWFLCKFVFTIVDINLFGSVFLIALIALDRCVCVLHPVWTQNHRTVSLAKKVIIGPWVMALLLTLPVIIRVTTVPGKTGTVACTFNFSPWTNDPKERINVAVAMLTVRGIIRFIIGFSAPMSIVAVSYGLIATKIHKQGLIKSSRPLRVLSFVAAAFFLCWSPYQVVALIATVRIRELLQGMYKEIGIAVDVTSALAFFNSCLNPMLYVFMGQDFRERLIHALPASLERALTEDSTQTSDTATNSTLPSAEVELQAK
168 GPCRs (Homo sapiens, UniProt P22888), sequence (P22888 27-699): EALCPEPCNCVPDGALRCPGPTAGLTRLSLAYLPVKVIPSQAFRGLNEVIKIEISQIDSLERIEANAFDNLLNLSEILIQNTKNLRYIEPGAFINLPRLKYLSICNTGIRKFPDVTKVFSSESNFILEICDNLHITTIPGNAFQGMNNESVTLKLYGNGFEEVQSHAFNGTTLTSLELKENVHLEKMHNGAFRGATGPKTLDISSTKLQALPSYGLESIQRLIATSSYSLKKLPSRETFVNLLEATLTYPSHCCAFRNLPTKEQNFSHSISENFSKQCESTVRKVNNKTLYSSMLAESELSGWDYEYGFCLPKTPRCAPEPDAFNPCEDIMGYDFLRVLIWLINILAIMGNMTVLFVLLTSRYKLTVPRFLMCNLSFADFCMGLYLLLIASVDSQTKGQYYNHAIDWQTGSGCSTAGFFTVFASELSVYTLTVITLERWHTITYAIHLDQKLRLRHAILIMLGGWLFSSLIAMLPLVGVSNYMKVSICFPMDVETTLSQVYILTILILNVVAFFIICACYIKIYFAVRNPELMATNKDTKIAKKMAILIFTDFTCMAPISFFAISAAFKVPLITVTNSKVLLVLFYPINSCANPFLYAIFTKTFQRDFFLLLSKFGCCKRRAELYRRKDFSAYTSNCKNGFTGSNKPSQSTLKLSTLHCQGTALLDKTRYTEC
168 GPCRs (Homo sapiens, UniProt Q9H3N8), sequence (Q9H3N8 whole entry): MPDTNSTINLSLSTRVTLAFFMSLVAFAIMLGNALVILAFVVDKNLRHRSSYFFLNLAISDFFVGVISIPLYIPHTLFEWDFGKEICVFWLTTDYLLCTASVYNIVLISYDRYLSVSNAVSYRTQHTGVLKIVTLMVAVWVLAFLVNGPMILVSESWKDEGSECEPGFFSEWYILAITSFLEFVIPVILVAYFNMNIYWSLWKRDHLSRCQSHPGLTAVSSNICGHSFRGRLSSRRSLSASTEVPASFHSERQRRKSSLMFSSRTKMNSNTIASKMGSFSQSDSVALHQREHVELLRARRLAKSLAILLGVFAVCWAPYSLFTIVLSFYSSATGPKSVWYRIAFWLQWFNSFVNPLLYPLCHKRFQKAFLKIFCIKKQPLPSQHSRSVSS

CNC(C)C(=O)c1ccc2c(c1)OCO2 (stereo not drawn) [methylone, 3,4-methylenedioxy-N-methylcathinone]
activity at 10 µM ([1]; Agonist mode, 10 uM): -1%
activity at 1 µM ([1]; Agonist, 1 uM): -1.5%
activity at 10 µM ([2]; PROKR1, Agonist mode, 10 uM): -2.8%
activity at 1 µM ([2]; PROKR1, Agonist, 1 uM): -1.3%
activity at 1 µM ([3]; 1 uM): -0.6%
activity at 10 µM ([3]; 10 uM): -0.5%
activity at 10 µM ([4]; GALR1, Agonist mode, 10 uM): 0.6%
activity at 1 µM ([4]; GALR1, Agonist, 1 uM): 0.8%
activity at 10 µM ([5]; Agonist mode, 10 uM): 1.4%
activity at 1 µM ([5]; Agonist, 1 uM): 0.3%
activity at 10 µM ([6]; HRH3, Agonist mode, 10 uM): -3.7%
activity at 1 µM ([6]; HRH3, Agonist, 1 uM): -3.4%
activity at 10 µM ([7]; FPR1, Agonist mode, 10 uM): 0.5%
activity at 1 µM ([7]; FPR1, Agonist, 1 uM): 2.2%
activity at 10 µM ([8]; Agonist mode, 10 uM): -2.95%
activity at 1 µM ([8]; Agonist, 1 uM): -1.1%
activity at 10 µM ([9]; UTR2, Agonist mode, 10 uM): 0%
activity at 1 µM ([9]; UTR2, Agonist, 1 uM): 0.6%
activity at 10 µM ([10]; MCHR1, Agonist mode, 10 uM): 3.1%
activity at 1 µM ([10]; MCHR1, Agonist, 1 uM): 3.9%
activity at 1 µM ([11]; 1 uM): -4.5%
activity at 10 µM ([11]; 10 uM): -5.3%
activity at 10 µM ([12]; DRD5, Agonist mode, 10 uM): -0.2%
activity at 1 µM ([12]; DRD5, Agonist, 1 uM): -0.1%
activity at 10 µM ([13]; Agonist mode, 10 uM): -3.7%
activity at 1 µM ([13]; Agonist, 1 uM): -5.5%
activity at 10 µM ([14]; GPR1, Agonist mode, 10 uM): -0.7%
activity at 1 µM ([14]; GPR1, Agonist, 1 uM): -0.5%
activity at 10 µM ([15]; TACR1, Agonist mode, 10 uM): -4.4%
activity at 1 µM ([15]; TACR1, Agonist, 1 uM): -3.9%
activity at 10 µM ([16]; Agonist mode, 10 uM): 0.4%
activity at 1 µM ([16]; Agonist, 1 uM): 0.4%
activity at 10 µM ([17]; Agonist mode, 10 uM): 8.9%
activity at 1 µM ([17]; Agonist, 1 uM): -7.9%
activity at 10 µM ([18]; CXCR5, Agonist mode, 10 uM): 1.4%
activity at 1 µM ([18]; CXCR5, Agonist, 1 uM): 2.5%
activity at 10 µM ([19]; Agonist mode, 10 uM): -4.4%
activity at 1 µM ([19]; Agonist, 1 uM): -2.6%
activity at 10 µM ([20]; CRHR1, Agonist mode, 10 uM): 1.1%
activity at 1 µM ([20]; CRHR1, Agonist, 1 uM): 1.4%
activity at 1 µM ([21]; HRH4, Agonist, 1 uM): 8.6%
activity at 10 µM ([21]; IHRH4, Agonist mode, 10 uM): 9%
